SMILES strings stand for the structures. pIC50: −log10 of the molar value.

In experiment [1] the target is T1, Heparanase (Homo sapiens, UniProt Q9Y251).
T1 sequence (Q9Y251 whole entry): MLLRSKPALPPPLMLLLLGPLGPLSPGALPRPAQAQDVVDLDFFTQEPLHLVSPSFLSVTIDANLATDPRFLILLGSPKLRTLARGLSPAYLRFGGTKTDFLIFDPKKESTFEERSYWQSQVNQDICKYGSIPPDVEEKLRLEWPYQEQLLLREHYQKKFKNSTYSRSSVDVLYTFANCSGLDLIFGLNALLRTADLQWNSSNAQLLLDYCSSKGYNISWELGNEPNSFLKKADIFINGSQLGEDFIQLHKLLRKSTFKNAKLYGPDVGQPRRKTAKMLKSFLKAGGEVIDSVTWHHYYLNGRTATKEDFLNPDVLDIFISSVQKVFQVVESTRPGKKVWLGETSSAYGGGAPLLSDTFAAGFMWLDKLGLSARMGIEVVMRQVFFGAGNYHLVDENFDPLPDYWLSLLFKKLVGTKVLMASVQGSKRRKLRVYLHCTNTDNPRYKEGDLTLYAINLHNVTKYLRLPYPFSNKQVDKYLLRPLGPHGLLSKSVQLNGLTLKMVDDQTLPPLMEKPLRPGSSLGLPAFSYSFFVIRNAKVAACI
Description: Inhibition of HPSE (unknown origin).

For experiment [2], the target named is T1, Heparanase. The experiment in a line: Inhibition of human HPSE assessed as residual amount of heparin using porcine heparin as substrate preincubated for 5 mins followed by substrate addition and measured after 15 mins by spectrophotometric analysis.
Another experiment relates to B16-F10. Description: Inhibition of cell migration in mouse B16-F10 cells by wound healing assay.
Experiment [3] can be described thus: Antiangiogenic activity in VEGF-stimulated human endothelial cells assessed as inhibition of cell growth and measured after 11 days by immunohistochemical staining based analysis. As to conditions: 264 h.
Experiment [4] in a line: Antiangiogenic activity in bFGF-stimulated human microvascular endothelial cells assessed as inhibition of cell growth incubated for 72 hrs. The format is functional, cell-based, Cardiac microvascular endothelial cell.
The subject of experiment [5] is HT-1080. The experiment in a line: Anti-invasive activity against human HT-1080 cells assessed as inhibition of cell invasive.
The subject of experiment [6] is HT-1080. Description: Antimigratory activity against human HT-1080 cells assessed as inhibition of cell migration.
Experiment [7] can be described thus: Antiproliferative activity against mouse Lewis lung carcinoma cell line assessed as reduction in cell proliferation by MTT assay. The format is functional, cell-based. (Formazan colour is commonly taken as a measure of viable cells.)
Experiment [8] relates to HepG2. Description: Antiproliferative activity against human HepG2 assessed as reduction in cell proliferation by MTT assay. The format is functional, cell-based.
For experiment [9], the system named is HepG2. Description: Antimigratory activity against human HepG2 assessed as inhibition of cell migration incubated for 48 hrs by Wound healing assay. As to conditions: HepG2, 48 h. The format is functional, cell-based.
Experiment [10] can be described thus: Antimigratory activity against mouse Lewis lung carcinoma cell line assessed as inhibition of cell migration incubated for 24 hrs by Wound healing assay. The format is functional, cell-based.
Experiment [11] in a line: Anti-invasive activity against mouse Lewis lung carcinoma cell line assessed as inhibition of cell invasion incubated for 24 hrs by transwell assay. The format is functional, cell-based.
Experiment [12] concerns HepG2. The experiment in a line: Anti-invasive activity against human HepG2 assessed as inhibition of cell invasion incubated for 48 hrs by transwell assay. The format is functional, cell-based. As to conditions: HepG2, 48 h.

As a reminder, the pIC50 is the IC50 on a negative log10 scale, so that one unit is a factor of ten. Regarding `CCCCCCCCCCCCCCCC(=O)C1=C(OC(C)C)[C@@H](CO)OC1=O`, the negative logarithm of the IC50 (pIC50) against Heparanase [1] is less than 4.00.

As for `CCCCCCCCCCCCCCCc1cc(O[C@@H]2O[C@H](C(=O)O)[C@@H](O)[C@H](O)[C@H]2O)cc(O)c1C(=O)Oc1cc(C)c(C(=O)O)c(O)c1`, the negative logarithm of the IC50 (pIC50) at Heparanase [2] was 5.52; in the experiment on B16-F10 it was 4.82. In the case of `O=C(O)c1ccc2c(c1)C(=O)N(c1cccc(-c3nc4ccccc4o3)c1)C2=O`, the pIC50 in experiment [3] is 4.40. In the case of `Cc1ccc(C(=O)Nc2ccc(S(=O)(=O)O)c3cc(S(=O)(=O)O)cc(S(=O)(=O)O)c23)cc1NC(=O)c1cccc(NC(=O)Nc2cccc(C(=O)Nc3cc(C(=O)Nc4ccc(S(=O)(=O)O)c5cc(S(=O)(=O)O)cc(S(=O)(=O)O)c45)ccc3C)c2)c1` [SURAMIN], in [4], the pIC50 was 6.27. `CCCCCCCCCCCCCCCC(=O)C1=C(OCc2ccccc2)[C@@H](CO)OC1=O`: the pIC50 with HT-1080 [5] and in the experiment with HT-1080 [6] was 5.52 each time. In the case of `CCCCCCCCCCCCCCCc1cc(O[C@@H]2O[C@H](C(=O)OC)[C@@H](O)[C@H](O)[C@H]2O)cc(O)c1C(=O)Oc1cc(C)c(C(=O)O)c(O)c1`, in the experiment on B16-F10, the pIC50 was 4.52. On to `Oc1c(I)cc(I)cc1-c1nn2c(-c3ccccc3)nnc2s1`, for which the negative-log IC50 (pIC50) in experiment [7] is 4.92; in the experiment on HepG2 [8] it was 5.08; with HepG2 [9] it was 5.30; in experiment [10] it was 5.30; in [11], 5.30; in the experiment on HepG2 [12], 5.30.

For `CCCCCCCCCCCCCCCC(=O)C1=C(OC)[C@@H](CO)OC1=O`, the pIC50 at Heparanase [1] is less than 4.00.

The record behind these values is ChEMBL document CHEMBL5244236, “Antitumor activity and structure-activity relationship of heparanase inhibitors: Recent advances” (Eur J Med Chem, 2020).
